What is called melting point is the temperature, or range, at which the solid turns liquid. The term inhibition denotes the percentage by which the read-out fell short of the control. A word on the IC50: it is the concentration at which inhibition is half-maximal. A low value points to greater potency.

Experimental findings from patent US7186749B2, “Pyrrolo-naphthyl acids and methods for using them” (Wyeth, priority 2004, dated 2007) are described below.

The target of series [1] is T1, recombinant human plasminogen activator inhibitor-1 (PAI-1) (Homo sapiens, UniProt P05121).
T1 construct: purchased Molecular Innovations, Royal Oak, Mich
T1 sequence (P05121 24-402): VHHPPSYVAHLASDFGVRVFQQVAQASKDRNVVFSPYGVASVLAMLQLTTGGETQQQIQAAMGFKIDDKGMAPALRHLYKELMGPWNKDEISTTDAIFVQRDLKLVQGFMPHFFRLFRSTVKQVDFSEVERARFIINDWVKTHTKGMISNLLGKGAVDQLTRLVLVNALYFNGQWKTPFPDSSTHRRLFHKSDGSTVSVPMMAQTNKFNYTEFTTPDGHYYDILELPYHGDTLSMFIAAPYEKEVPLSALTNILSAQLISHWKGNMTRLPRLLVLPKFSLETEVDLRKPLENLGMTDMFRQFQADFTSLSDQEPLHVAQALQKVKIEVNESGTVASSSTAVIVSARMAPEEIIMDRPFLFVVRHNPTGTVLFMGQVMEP
Description: Primary screen for PAI-1 inhibition (chromogenic tPA activity, Spectrozyme-tPA). Format: biochemical. To be noted: 140 nM PAI-1, 70 nM tPA, pH 6.6; for inhibition at 10 µM: test compound 10 μM; for inhibition at 25 µM: test compound 25 μM. The method, then:
Test compounds are dissolved in DMSO at a final concentration of 10 mM, then diluted 100× in physiologic buffer. The inhibitory assay is initiated by the addition of the test compound (1–100 μM final concentration, maximun DMSO concentration of 0.2%) in a pH 6.6 buffer containing 140 nM recombinant human plasminogen activator inhibitor-1 (PAI-1; Molecular Innovations, Royal Oak, Mich.). Following a 1 hour incubation at room temperature, 70 nM of recombinant human tissue plasminogen activator (tPA) is added, and the combination of the test compound, PAI-1 and tPA is incubated for an additional 30 minutes. Following the second incubation, Spectrozyme-tPA (American Diagnostica, Greenwich, Conn.), a chromogenic substrate for tPA, is added and absorbance read at 405 nm at 0 and 60 minutes. Relative PAI-1 inhibition is equal to the residual tPA activity in the presence of the test compound and PAI-1. Control treatments include the complete inhibition of tPA by PAI-1 at the molar ratio employed (2:1), and the absence of any effect of the test compound on tPA alone.

Series [2] deals with human PAI-1 (Homo sapiens, UniProt P05121). The experiment in a line: Antibody assay for determining IC50 of inhibition of PAI-1 (active PAI-1 bound to tPA-coated plate). Format: binding. Particulars: pH 7.5, human PAI-1 50 ng/ml. The method, then: This assay is based upon the non-SDS dissociable interaction between tPA and active PAI-1. Assay plates are initially coated with human tPA (10 μg/ml). Test compounds of the present invention are dissolved in DMSO at 10 mM, then diluted with physiologic buffer (pH 7.5) to a final concentration of 1–50 μM. Test compounds are incubated with human PAI-1 (50 ng/ml) for 15 minutes at room temperature. The tPA-coated plate is washed with a solution of 0.05% Tween 20 and 0.1% BSA, then the plate is blocked with a solution of 3% BSA. An aliquot of the pyrrolo-naphthyl/PAI-1 solution is then added to the tPA-coated plate, incubated at room temperature for 1 hour, and washed. Active PAI-1 bound to the plate is assessed by adding an aliquot of a 1:1000 dilution of the 33B8 monoclonal antibody against human PAI-1, and incubating the plate at room temperature for 1 hour (Molecular Innovations, Royal Oak, Mich.). The plate is again washed, and a solution of goat anti-mouse IgG-alkaline phosphatase conjugate is added at a 1:50,000 dilution in goat serum. The plate is incubated 30 minutes at room temperature, washed, and a solution of alkaline phosphatase substrate is added. The plate is incubated 45 minutes at room temperature, and color development is determined at OD405 nm. The quantitation of active PAI-1 bound to tPA at varying concentrations of the test compound is used to determine the IC50. Results are analyzed using a logarithmic best-fit equation. The assay sensitivity is 5 ng/ml of human PAI-1 as determined from a standard curve ranging from 0–100 ng/ml.
Sequence of human PAI-1 (P05121 24-402): as above

As for `O=C(O)COc1ccc2cc(-c3ccc(-c4ccccc4)n3-c3ccccc3)ccc2c1` [Example 12, {[6-(1,5-diphenyl-1H-pyrrol-2-yl)-2-naphthyl]oxy}acetic acid], the melting point is 258 to 260 °C (dec.). Further, in series [1], the inhibition at 10 µM was determined as 48% and the inhibition at 25 µM is 58%.

`Cn1c(-c2ccccc2)ccc1-c1ccc2cc(OC(Cc3ccccc3)C(=O)O)ccc2c1` (stereo not drawn) [Example 7, 2-{[6-(1-methyl-5-phenyl-1H-pyrrol-2-yl)-2-naphthyl]oxy}-3-phenylpropanoic acid] yielded a melting point of 171 to 173 °C. In addition, in series [1], the inhibition at 10 µM came out at 30% and the inhibition at 25 µM is 95%.

With `O=C(O)C(Cc1ccccc1)Oc1ccc2cc(-c3ccc(-c4ccccc4)n3Cc3ccc(C(F)(F)F)cc3)ccc2c1` (stereo not drawn) [Example 8, 3-phenyl-2-[(6-{5-phenyl-1-[4-(trifluoromethyl)benzyl]-1H-pyrrol-2-yl}2-naphthyl)oxy]propanoic acid], the melting point fell in the range of 153 to 155 °C. Further, in series [1], the inhibition at 10 µM stood at 43% and the inhibition at 25 µM came to 62%.

As for `O=C(O)c1ccc(COc2ccc3cc(-c4ccc(-c5ccccc5)[nH]4)ccc3c2)c(C(=O)O)c1` [Example 17, 4-({[6-(5-phenyl-1H-pyrrol-2-yl)-2-naphthyl]oxy}methyl)isophthalic acid], the melting point was 289 to 291 °C. In addition, in series [1], the inhibition at 10 µM was 18% and the inhibition at 25 µM worked out at 44%.

Take `c1ccc(Cn2c(-c3ccccc3)ccc2-c2ccc3cc(OCc4nnn[nH]4)ccc3c2)cc1` [Example 4, 5-({[6-(1-benzyl-5-phenyl-1H-pyrrol-2-yl)-2-naphthyl]oxy}methyl)-1H-tetraazole]: the melting point was 190 to 200 °C (dec.). In addition, in series [1], the inhibition at 10 µM came out at 11% and the inhibition at 25 µM amounted to 67%.

On to `O=C(O)c1ccc(COc2ccc3cc(-c4ccc(-c5ccccc5)n4Cc4ccc(C(F)(F)F)cc4)ccc3c2)c(C(=O)O)c1` [Example 16, 4-{[(6-{5-phenyl-1-[4-(trifluoromethyl)benzyl]-1H-pyrrol-2-yl}-2-naphthyl)oxy]methyl}isophthalic acid], for which the melting point is 250 to 252 °C. In addition, in series [1], the inhibition at 10 µM came to 40% and the inhibition at 25 µM came out at 63%.

Compound `O=C(O)COc1ccc2cc(-c3ccc(-c4ccccc4)n3Cc3ccc(C(F)(F)F)cc3)ccc2c1` [Example 10, [(6-{5-Phenyl-1-[4-(trifluoromethyl)benzyl]-1H-pyrrol-2-yl}-2-naphthyl)oxy]acetic acid] had a melting point of 154 to 156 °C. Further, in series [1], the inhibition at 10 µM is 29% and the inhibition at 25 µM stood at 55%.

Consider `FC(F)(F)c1ccc(Cn2c(-c3ccccc3)ccc2-c2ccc3cc(OCc4nnn[nH]4)ccc3c2)cc1` [Example 9, 5-{[(6-{5-Phenyl-1-[4-(trifluoromethyl)benzyl]-1H-pyrrol-2-yl}-2-naphthyl)oxy]methyl}-1H-tetraazole], for which the melting point was in the range of 173 to 175 °C. Also, in series [1], the inhibition at 10 µM is 31% and the inhibition at 25 µM amounted to 49%.

As to `Cn1c(-c2ccccc2)ccc1-c1ccc2cc(OCc3nnn[nH]3)ccc2c1` [Example 5, 5-({[6-(1-methyl-5-phenyl-1H-pyrrol-2-yl)-2-naphthyl]oxy}methyl)-1H-tetraazole], the melting point is 231 to 233 °C (dec.). Besides, in series [1], the inhibition at 10 µM is 15% and the inhibition at 25 µM came to 32%.

For `O=C(O)c1ccc(COc2ccc3cc(-c4ccc(-c5ccccc5)n4Cc4ccc(C(F)(F)F)cc4)ccc3c2)cc1` [Example 14, 4-{[(6-{5-phenyl-1-[4-(trifluoromethyl)benzyl]-1H-pyrrol-2-yl}-2-naphthyl)oxy]methyl}benzoic acid], the melting point was 228 to 229 °C. For the same compound, in series [1], the inhibition at 10 µM turned out to be 23% and the inhibition at 25 µM worked out at 31%.

As for `c1ccc(-c2ccc(-c3ccc4cc(OCc5nnn[nH]5)ccc4c3)n2-c2ccccc2)cc1` [Example 11, 5-({[6-(1,5-diphenyl-1H-pyrrol-2-yl)-2-naphthyl]oxy}methyl)-1H-tetraazole], the melting point was 269 to 270 °C (dec.). For the same compound, in series [1], the inhibition at 10 µM came out at 30% and the inhibition at 25 µM is 68%.

For the compound `O=C(O)C(Cc1ccccc1)Oc1ccc2cc(-c3ccc(-c4ccccc4)[nH]3)ccc2c1` (stereo not drawn) [Example 1, 3-phenyl-2-{[6-(5-phenyl-1H-pyrrol-2-yl)-2-naphthyl]oxy}propanoic acid], the melting point fell in the range of 176 to 178 °C. Moreover, in series [1], the inhibition at 10 µM came to 12% and the inhibition at 25 µM was found to be 78%. Further, in series [2], the half-maximal inhibitory concentration (IC50) stood at 44.4 µM.

`O=C(O)COc1ccc2cc(-c3ccc(-c4ccccc4)n3Cc3ccccc3)ccc2c1` [Example 6, {[6-(1-benzyl-5-phenyl-1H-pyrrol-2-yl)-2-naphthyl]oxy}acetic acid] showed a melting point of 171 to 172 °C. In addition, in series [1], the inhibition at 10 µM was determined as 14% and the inhibition at 25 µM was found to be 74%.

`O=C(O)c1ccc(COc2ccc3cc(-c4ccc(-c5ccccc5)n4-c4ccccc4)ccc3c2)cc1` [Example 15, 4-({[6-(1,5-diphenyl-1H-pyrrol-2-yl)-2-naphthyl]oxy}methyl)benzoic acid]: the melting point is 309 to 310 °C. Also, in series [1], the inhibition at 10 µM worked out at 30% and the inhibition at 25 µM was found to be 68%.

Take `O=C(O)C(Cc1ccccc1)Oc1ccc2cc(-c3ccc(-c4ccccc4)n3Cc3ccccc3)ccc2c1` (stereo not drawn) [Example 2, 2-{[6-(1-benzyl-5-phenyl-1H-pyrrol-2-yl)-2-naphthyl]oxy}-3-phenylpropanoic acid]: the melting point was in the range of 70 to 80 °C. In series [1], the inhibition at 10 µM turned out to be 37% and the inhibition at 25 µM amounted to 66%. In series [2], this compound came in with a half-inhibitory concentration (IC50) of 16.1 µM.

On to `O=C(O)C(Cc1ccccc1)Oc1ccc2cc(-c3ccc(-c4ccccc4)n3-c3ccccc3)ccc2c1` (stereo not drawn) [Example 13, 2-{[6-(1,5-diphenyl-1H-pyrrol-2-yl)-2-naphthyl]oxy}-3-phenylpropanoic acid], for which the melting point is 194 to 196 °C (dec.). Moreover, in series [1], the inhibition at 10 µM was found to be 33% and the inhibition at 25 µM stood at 60%.

With `c1ccc(-c2ccc(-c3ccc4cc(OCc5nnn[nH]5)ccc4c3)[nH]2)cc1` [Example 3, 5-({[6-(5-phenyl-1H-pyrrol-2-yl)-2-naphthyl]oxy}methyl)-1H-tetraazole], the melting point is 237 to 240 °C (dec.). In series [1], the inhibition at 10 µM amounted to 15% and the inhibition at 25 µM was 52%. It took 33 µM to reach half-maximal inhibition in series [2] (IC50).
